Assay results published in publication PMC11193111 (2024).

Test system: THF-containing double-stranded 17-mer oligodeoxynucleotide (DNA, mismatch bulge abasic, tetrahydrofuran (THF, abasic site analogue) at 6 of strand 1) TCACCNTCGTACGACTC/GAGTCGTACGACGGTGA
Experiment: thiazole orange displacement, fluorescence
Conditions: 100 mM KCl, 20 mM Tris-HCl pH 7.4, 0.01% Tween-20, room temperature, 250 nM thiazole orange displaced, 50 nM DNA

| apparent DNA binding constant | Structure (SMILES) |
| --- | --- |
| 1.25 ± 0.32 µM | NCCNc1ccc(NCCN)c2c1C(=O)c1ccncc1C2=O |
| 0.083 ± 0.003 µM | O=C1c2c(O)ccc(O)c2C(=O)c2c(NCCNCCO)ccc(NCCNCCO)c21 |
